According to ChEMBL document CHEMBL2390897, “3-Anhydro-6-hydroxy-ophiobolin A, a new sesterterpene inhibiting the growth of methicillin-resistant Staphylococcus aureus and inducing the cell death by apoptosis on K562, from the phytopathogenic fungus Bipolaris oryzae” (Bioorg Med Chem Lett, 2013):
Values after ≈ are worked out from the molar mass of the structure shown.

test system: Mycobacterium tuberculosis; assay: Antimicrobial activity against Bacille Calmette-Guerin; type: functional; settings: variant bovis BCG

SMILES | MIC
NNC(=O)c1ccncc1 [ISONIAZID] | 0.05 µg/mL (≈ 0.365 µM)
CC(C)=C[C@H]1C[C@H](C)[C@]2(CC[C@]3(C)C[C@@H]4C(C)=CC(=O)[C@]4(O)/C(C=O)=C\C[C@H]32)O1 | 12.5 µg/mL (≈ 31.4 µM)
CC(C)=C[C@H]1C[C@H](C)[C@]2(CC[C@]3(C)C[C@@H]4C(C)=CC(=O)[C@@H]4/C(C=O)=C\C[C@H]32)O1 | > 100 µg/mL
CC(C)=C[C@H]1C[C@H](C)[C@]2(CC[C@]3(C)C[C@@H]4C(C)=CC(=O)[C@H]4/C(C=O)=C\C[C@H]32)O1 [3-ANHYDRO-6-EPI-OPHIOBOLIN A] | > 100 µg/mL
